# Earlier results as cited in US10729136B2, “Synergistic herbicidal composition and use thereof” (priority 2015, dated 2020).
# How the values were obtained:
# [1] = 0.05% Rhodasurf DA630 solution, pH 5.5, after 10 days
smiles,measurement,setting,value
"CS(=O)(=O)c1ccc(C(=O)C2C(=O)CCCC2=O)c([N+](=O)[O-])c1 [Form 2, 2-(4-mesyl-2-nitrobenzoyl)cyclohexane-1,3-dione]","Polymorphic form (microscopy, FT-IR)",[1],still predominately Form 2
same,"Polymorphic form of the suspension, determined periodically","pH between 3.5 and 4, over 3 weeks",always found to be Form 2
same,Time for Form 2 to transform to Form 1,"stirred aqueous suspension, below pH 2.5",≤ 1 h
same,Conversion of Form 2 to Form 1 when seeded,"stirred aqueous suspension, pH 3, seeded with Form 1",converted to Form 1 when seeded with Form 1 over four hours
same,Polymorphic stability of Form 2,"stirred aqueous suspension, pH 3, unseeded",stable
